Like-named read-outs stand apart in the source and are kept apart here.

The values below come from patent US9700047B2, “Macrocyclic picolinamides as fungicides” (Dow AgroSciences LLC, priority 2014, dated 2017).

The subject of this assay is Puccinia triticina; Synonym: Puccinia recondita f sp. tritici. As to the kind of experiment: Wheat brown rust (PUCCRT) disease control on wheat seedlings. Format: in vivo. The conditions noted are these: Low Volume activity at 121.5 g/H. As for the experimental part: All fungicides were evaluated using the aforementioned method for their activity vs. all target diseases, unless stated otherwise. Wheat leaf blotch and brown rust activity were also evaluated using track spray applications, in which case the fungicides were formulated as EC formulations, containing 0.1% Trycol 5941 in the spray solutions. Wheat plants (variety Yuma) were grown from seed in a greenhouse in 50% mineral soil/50% soil-less Metro mix until the first leaf was fully emerged, with 7-10 seedlings per pot. These plants were inoculated with an aqueous spore suspension of Puccinia triticina either prior to or after fungicide treatments. […] The plants were then transferred to a greenhouse set at 24° C. for disease to develop. Fungicide formulation, application and disease assessment followed the procedures as described in the Example A.

Where [1] appears, read: 24 h, 1 Day Protectant, read-out: PUCCRT 1DP % Control rating.
[2] abbreviates: 72 h, 3 Day Curative, read-out: PUCCRT 3DC % Control rating.

With `CCOCC(=O)OCOc1c(OC)ccnc1C(=O)N[C@H]1CCC[C@H](Cc2ccccc2)[C@@H](CCc2ccccc2)[C@H](C)OC1=O` [Compound 16], the pest or weed control at 121.5 g/ha was more than 70% under setting [1] and more than 70% under setting [2].
As to `COc1ccnc(C(=O)N[C@H]2CCC[C@H](Cc3ccccc3)[C@@H](CCc3ccccc3)[C@H](C)OC2=O)c1OCOC(=O)C(C)C` [Compound 17], the pest or weed control at 121.5 g/ha is more than 70% under setting [1] and less than 70% under setting [2].
Taken in the same sequence, the figures for `COc1ccnc(C(=O)N[C@H]2CCC[C@H](Cc3ccccc3)[C@@H](CCc3ccccc3)[C@H](C)OC2=O)c1OC(C)=O` [Compound 18] were less than 70% and less than 70%.
As for `COc1ccnc(C(=O)N[C@H]2CCC[C@H](Cc3ccc(Cl)cc3)[C@@H](Cc3ccccc3)[C@H](C)OC2=O)c1OCOC(C)=O` [Compound 19], the pest or weed control at 121.5 g/ha under setting [1] is more than 70% and the pest or weed control at 121.5 g/ha under setting [2] was less than 70%.
Taken in the same sequence, the figures for `CCOCC(=O)OCOc1c(OC)ccnc1C(=O)N[C@H]1CCC[C@H](Cc2ccc(Cl)cc2)[C@@H](Cc2ccccc2)[C@H](C)OC1=O` [Compound 20] were more than 70% and more than 70%.
Consider `COc1ccnc(C(=O)N[C@H]2CCC[C@H](Cc3ccc(Cl)cc3)[C@@H](Cc3ccccc3)[C@H](C)OC2=O)c1OC(C)=O` [Compound 21], for which the pest or weed control at 121.5 g/ha is, setting by setting: under setting [1], more than 70%; under setting [2], less than 70%.
Taken in the same sequence, the figures for `COc1ccnc(C(=O)N[C@H]2CCC[C@H](Cc3ccc(C(F)(F)F)cc3)[C@@H](CC(C)C)[C@H](C)OC2=O)c1OC(C)=O` [Compound 22] were more than 70% and less than 70%.
Turning to `COc1ccnc(C(=O)N[C@H]2CCC[C@H](Cc3ccc(C(F)(F)F)cc3)[C@@H](CC(C)C)[C@H](C)OC2=O)c1OCOC(C)=O` [Compound 23], the pest or weed control at 121.5 g/ha under setting [1] is more than 70% and the pest or weed control at 121.5 g/ha under setting [2] is less than 70%.
The matching figures for `COc1ccnc(C(=O)N[C@H]2CCC[C@H](Cc3ccc(C(F)(F)F)cc3)[C@@H](CC(C)C)[C@H](C)OC2=O)c1OCOC(=O)C(C)C` [Compound 24]: less than 70% and less than 70%.
The matching figures for `COc1ccnc(C(=O)N[C@H]2CCC[C@H](Cc3ccc(C(F)(F)F)cc3)[C@@H](Cc3ccccc3)[C@H](C)OC2=O)c1OC(C)=O` [Compound 25]: less than 70% and less than 70%.
The matching figures for `COc1ccnc(C(=O)N[C@H]2CCC[C@H](Cc3ccc(C(F)(F)F)cc3)[C@@H](Cc3ccccc3)[C@H](C)OC2=O)c1OCOC(C)=O` [Compound 26]: more than 70% and less than 70%.
On to `COc1ccnc(C(=O)N[C@H]2CCC[C@H](Cc3ccc(C(F)(F)F)cc3)[C@@H](Cc3ccccc3)[C@H](C)OC2=O)c1OCOC(=O)C(C)C` [Compound 27], for which the pest or weed control at 121.5 g/ha was more than 70% under setting [1] and less than 70% under setting [2].
The matching figures for `COc1ccnc(C(=O)N[C@H]2CCC[C@H](Cc3ccc(Cl)cc3)[C@@H](C3CCCC3)[C@H](C)OC2=O)c1OC(C)=O` [Compound 28]: more than 70% and less than 70%.
`COc1ccnc(C(=O)N[C@H]2CCC[C@H](Cc3ccc(Cl)cc3)[C@@H](C3CCCC3)[C@H](C)OC2=O)c1OCOC(C)=O` [Compound 29]: the pest or weed control at 121.5 g/ha is, setting by setting: under setting [1], more than 70%; under setting [2], less than 70%.
The matching figures for `COc1ccnc(C(=O)N[C@H]2CCC[C@H](Cc3ccc(Cl)cc3)[C@@H](C3CCCC3)[C@H](C)OC2=O)c1OCOC(=O)C(C)C` [Compound 30]: less than 70% and less than 70%.
The matching figures for `CCOCC(=O)OCOc1c(OC)ccnc1C(=O)N[C@H]1CCC[C@H](Cc2ccc(Cl)cc2)[C@@H](C2CCCC2)[C@H](C)OC1=O` [Compound 31]: more than 70% and less than 70%.
The matching figures for `COc1ccnc(C(=O)N[C@H]2CCC[C@H](CCCc3ccccc3)[C@@H](CCc3ccccc3)[C@H](C)OC2=O)c1OCOC(C)=O` [Compound 32]: more than 70% and less than 70%.
Take `COc1ccnc(C(=O)N[C@H]2CCC[C@H](CCCc3ccccc3)[C@@H](CCc3ccccc3)[C@H](C)OC2=O)c1OC(C)=O` [Compound 33]: the pest or weed control at 121.5 g/ha runs as follows: under setting [1], less than 70%; under setting [2], less than 70%.
As to `COc1ccnc(C(=O)N[C@H]2CCC[C@H](CCC(C)C)[C@@H](CCc3ccccc3)[C@H](C)OC2=O)c1OCOC(C)=O` [Compound 34], the pest or weed control at 121.5 g/ha is more than 70% under setting [1] and less than 70% under setting [2].
Taken in the same sequence, the figures for `CCOCC(=O)OCOc1c(OC)ccnc1C(=O)N[C@H]1CCC[C@H](CCC(C)C)[C@@H](CCc2ccccc2)[C@H](C)OC1=O` [Compound 35] were more than 70% and less than 70%.
Taken in the same sequence, the figures for `COc1ccnc(C(=O)N[C@H]2CCC[C@H](CCC(C)C)[C@@H](CCc3ccccc3)[C@H](C)OC2=O)c1OC(C)=O` [Compound 36] were more than 70% and less than 70%.
The matching figures for `CCC[C@H]1CCC[C@H](NC(=O)c2nccc(OC)c2OCOC(C)=O)C(=O)O[C@@H](C)[C@@H]1Cc1ccccc1` [Compound 37]: more than 70% and more than 70%.
In the case of `CCC[C@H]1CCC[C@H](NC(=O)c2nccc(OC)c2OC(C)=O)C(=O)O[C@@H](C)[C@@H]1Cc1ccccc1` [Compound 38], the pest or weed control at 121.5 g/ha reads like this: under setting [1], more than 70%; under setting [2], more than 70%.
On to `COc1ccnc(C(=O)N[C@H]2CCC[C@H](Cc3ccc(C(F)(F)F)cc3)[C@@H](Cc3ccc(F)cc3)[C@H](C)OC2=O)c1OCOC(C)=O` [Compound 39], for which the pest or weed control at 121.5 g/ha by setting is: under setting [1], less than 70%; under setting [2], less than 70%.
Turning to `COc1ccnc(C(=O)N[C@H]2CCC[C@H](Cc3ccc(C(F)(F)F)cc3)[C@@H](Cc3ccc(F)cc3)[C@H](C)OC2=O)c1OC(C)=O` [Compound 40], the pest or weed control at 121.5 g/ha was less than 70% under setting [1] and less than 70% under setting [2].
As for `COc1ccnc(C(=O)N[C@H]2CCC[C@H](Cc3ccc(C(F)(F)F)cc3)[C@@H](Cc3ccc(F)cc3)[C@H](C)OC2=O)c1OCOC(=O)C(C)C` [Compound 41], the pest or weed control at 121.5 g/ha under setting [1] was less than 70% and the pest or weed control at 121.5 g/ha under setting [2] is less than 70%.
In the case of `COc1ccnc(C(=O)N[C@H]2CCC[C@H](CCC(C)C)[C@@H](C3CCCC3)[C@H](C)OC2=O)c1OCOC(C)=O` [Compound 42], the pest or weed control at 121.5 g/ha under setting [1] was more than 70% and the pest or weed control at 121.5 g/ha under setting [2] was less than 70%.
Taken in the same sequence, the figures for `COc1ccnc(C(=O)N[C@H]2CCC[C@H](CCC(C)C)[C@@H](C3CCCC3)[C@H](C)OC2=O)c1OC(C)=O` [Compound 43] were more than 70% and less than 70%.
For the molecule `COc1ccnc(C(=O)N[C@H]2CCC[C@H](CCC(C)C)[C@@H](C3CCCC3)[C@H](C)OC2=O)c1OCOC(=O)C(C)C` [Compound 44], the pest or weed control at 121.5 g/ha under setting [1] is more than 70% and the pest or weed control at 121.5 g/ha under setting [2] was less than 70%.
Taken in the same sequence, the figures for `COc1ccnc(C(=O)N[C@H]2CCC[C@H](Cc3ccccc3)[C@@H](CCC(C)C)[C@H](C)OC2=O)c1OC(C)=O` [Compound 45] were more than 70% and less than 70%.
Taken in the same sequence, the figures for `CCC[C@H]1CCC[C@H](NC(=O)c2nccc(OC)c2OC(C)=O)C(=O)O[C@@H](C)[C@@H]1Cc1ccc(F)cc1` [Compound 46] were more than 70% and more than 70%.
Regarding `COc1ccnc(C(=O)N[C@H]2CCC[C@H](Cc3ccccc3)[C@@H](CCC(C)C)[C@H](C)OC2=O)c1OCOC(C)=O` [Compound 47], the pest or weed control at 121.5 g/ha under setting [1] was more than 70% and the pest or weed control at 121.5 g/ha under setting [2] was less than 70%.
Taken in the same sequence, the figures for `CCC[C@H]1CCC[C@H](NC(=O)c2nccc(OC)c2OCOC(C)=O)C(=O)O[C@@H](C)[C@@H]1Cc1ccc(F)cc1` [Compound 48] were more than 70% and more than 70%.
The matching figures for `COc1ccnc(C(=O)N[C@H]2CCC[C@H](Cc3ccccc3)[C@@H](CCC(C)C)[C@H](C)OC2=O)c1OC(=O)C(C)C` [Compound 49]: less than 70% and less than 70%.
Taken in the same sequence, the figures for `COc1ccnc(C(=O)N[C@H]2CCC[C@H](Cc3ccccc3)[C@@H](CCC(C)C)[C@H](C)OC2=O)c1OCOC(=O)C(C)C` [Compound 50] were more than 70% and less than 70%.
Consider `CCOCC(=O)OCOc1c(OC)ccnc1C(=O)N[C@H]1CCC[C@H](Cc2ccccc2)[C@@H](CCC(C)C)[C@H](C)OC1=O` [Compound 51], for which the pest or weed control at 121.5 g/ha is more than 70% under setting [1] and less than 70% under setting [2].
The matching figures for `COc1ccnc(C(=O)N[C@H]2CCC[C@H](Cc3ccccc3)[C@@H](c3ccccc3)[C@H](C)OC2=O)c1OCOC(C)=O` [Compound 52]: more than 70% and less than 70%.
`COc1ccnc(C(=O)N[C@H]2CCC[C@H](Cc3ccccc3)[C@@H](c3ccccc3)[C@H](C)OC2=O)c1OC(C)=O` [Compound 53]: the pest or weed control at 121.5 g/ha is more than 70% under setting [1] and less than 70% under setting [2].
